# Test system: rats that had Aspirin induced gastrointestinal ulcers
# Assay: Treatment effects of PU98 on rats that had Aspirin induced gastrointestinal ulcers
# Assay type: in vivo
# Details: 200 mg Aspirin intraperitoneal day 1 to day 3 after fasting; thirty rats; internal abdominal bleeding upon dissection
# Source text: PU98 (composition of binary molecular weight of HA that are 70% HA with an average Mw of 2000 KDa and 30% HA with an average Mw of 1000 KDa in PBS solution, the final concentration is 0.5%; i.e. 0.5 g HA in 100 c.c. PBS solution).
# Thirty eight-weeks-old SPF Sprague-Dawley male rats (BioLASCO Taiwan Co., Ltd.), were divided into 3 groups: study group (Aspirin/PU98), placebo group (Aspirin/PBS), control group (PBS), each group consisting of 10 rats with 2 rats housed per cage at the Animal Technology Institute Taiwan rodents room.
# Before animal experimentation, rats were first fasted for 24 hours or more. From day one (D1) of experimentation to day three (D3), rats were given 1 ml of Aspirin (200 mg/ml) through intraperitoneal administration.
# From day 4 to day 18, rats of the study group were given 1 ml of Aspirin (100 mg/ml) daily through intraperitoneal administration, they were also fed a 2 ml dosage of PU98 once every morning and afternoon.
# From day 4 to day 18, rats of the placebo group were given 1 ml of Aspirin (100 mg/ml) daily through intraperitoneal administration, however they were fed a 2 ml dosage of PBS (placebo) once every morning and afternoon. […]
# The present invention was analyzed by “student t test” to evaluate relationship between the study group, placebo group and control group.
smiles,measurement,value
CC(=O)Oc1ccccc1C(=O)O [Aspirin],rats died on day 4 after Aspirin induction,11

# Reference: patent US8722644B2, “Mixture of hyaluronic acid for treating and preventing peptic ulcer and duodenal ulcer” (Holy Stone Healthcare Co., Ltd., priority 2010, dated 2014)
